Measurements as given in patent EP0049683A2, “Imidazo-rifamycines, process for their preparation, pharmaceutical preparations containing them and their use” (CIBA-GEIGY AG, priority 1980, dated 1982).
In brackets after ≈: the same amount, converted by molar mass.

What was measured:
Assay in all cases: Agar dilution MIC in DST agar (Ericsson and Sherris)
Type in all cases: cell-based
[1] = system: Pseudomonas aeruginosa K 799/61; settings: for MIC Pseu. 799: in vitro, agar dilution, DST agar; for MIC: Pseudomonas aeruginosa, K799/61, read-out: MIC Pseu. 799
Summary of the method: (§1)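 Compounds are incorporated into agar at graded levels and the test strain is applied; the lowest concentration still suppressing its growth is recorded as the MIC in µg/ml.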

Escherichia coli 2018 = settings: for MIC Esch. 2018: in vitro; for MIC: Escherichia coli, 2018, in vitro, read-out: MIC Esch. 2018
Summary of the method: as §1

Proteus morganii 2359 = settings: for MIC Prot. 2359: in vitro; for MIC: Morganella morganii, 2359, in vitro, read-out: MIC Prot. 2359
Summary of the method: as §1

[2] = system: Staphylococcus aureus 2999; settings: for MIC Staph. 2999: in vitro; for MIC: Staphylococcus aureus, 2999, in vitro, read-out: MIC Staph. 2999
Summary of the method: as §1

Escherichia coli 205 = settings: for MIC Esch. 205: in vitro; for MIC: Escherichia coli, 205, in vitro, read-out: MIC Esch. 205
Summary of the method: as §1

[3] = system: Salmonella Typhimurium 277; settings: in vitro; for MIC: Salmonella enterica, TYPHIMURIUM, read-out: MIC Salm. 277
Summary of the method: as §1

[4] = system: Staphylococcus aureus 10B; settings: in vitro; for MIC: Staphylococcus aureus, 10B, read-out: MIC Staph. 10B
Summary of the method: as §1

Proteus morganii 1518 = settings: for MIC Prot. 1518: in vitro; for MIC: Morganella morganii, 1518, in vitro, read-out: MIC Prot. 1518
Summary of the method: as §1

| Compound | MIC Pseu. 799 [1] [mg/L] | MIC Esch. 2018 (Escherichia coli 2018) [mg/L] | MIC Prot. 2359 (Proteus morganii 2359) [mg/L] | MIC Staph. 2999 [2] [mg/L] | MIC Esch. 205 (Escherichia coli 205) [mg/L] | MIC Salm. 277 [3] [mg/L] | MIC Staph. 10B [4] [mg/L] | MIC Prot. 1518 (Proteus morganii 1518) [mg/L] | MIC [1] [mg/L] | MIC (Escherichia coli 2018) [mg/L] | MIC (Proteus morganii 2359) [mg/L] | MIC [2] [mg/L] | MIC (Escherichia coli 205) [mg/L] | MIC [3] [mg/L] | MIC [4] [mg/L] | MIC (Proteus morganii 1518) [mg/L] |
| --- | --- | --- | --- | --- | --- | --- | --- | --- | --- | --- | --- | --- | --- | --- | --- | --- |
| 4-(4-Isopropylcarbamoylmethylpiperazinyl)-imidazolo-[4,5-c]rifamycin SV [Verbindung 72] | 64 | 32 | 32 | 0.05 | 32 | 128 | 0.05 | 32 |  |  |  |  |  |  |  |  |
| CO[C@H]1/C=C/O[C@@]2(C)Oc3c(C)c(O)c4c(O)c(c5nc(N6CCN(c7ccccn7)CC6)[nH]c5c4c3C2=O)NC(=O)/C(C)=C\C=C\[C@H](C)[C@H](O)[C@@H](C)[C@@H](O)[C@@H](C)[C@H](OC(C)=O)[C@@H]1C [Verbindung 59, 4-[4-(2-Pyridyl)-piperazinyl]-imidazolo[4,5-c]rifamycin SV] |  |  |  |  |  |  |  |  | 8 (≈ 9.06 µM) | 8 (≈ 9.06 µM) | 8 (≈ 9.06 µM) | 0.01 (≈ 0.0113 µM) | 8 (≈ 9.06 µM) | 32 (≈ 36.2 µM) | 0.01 (≈ 0.0113 µM) | 2 (≈ 2.26 µM) |
| 4-(4-Ethoxycarbonylpiperazinyl)-imidazolo[4,5-c]rifamycin SV [Verbindung 67] | 32 | 16 | 16 | 0.005 | 16 | 64 | 0.005 | 16 |  |  |  |  |  |  |  |  |
| CCC(C)CN1CCN(c2nc3c([nH]2)c2c(O)c4c(O)c(C)c5c(c43)C(=O)[C@@](C)(O/C=C/[C@H](OC)[C@@H](C)[C@@H](OC(C)=O)[C@H](C)[C@H](O)[C@H](C)[C@@H](O)[C@@H](C)/C=C/C=C(/C)C(=O)N2)O5)CC1 (stereo partly drawn) [Verbindung 38, 4-[4-(2-Methyl-butyl)piperazinyl]-imidazolo[4,5-c]rifamycin SV] |  |  |  |  |  |  |  |  | 16 (≈ 18.3 µM) | 2 (≈ 2.28 µM) | 2 (≈ 2.28 µM) | 0.005 (≈ 0.00571 µM) | 4 (≈ 4.57 µM) | 16 (≈ 18.3 µM) | 0.005 (≈ 0.00571 µM) | 4 (≈ 4.57 µM) |
| 4-[4-(2-Dimethylaminoethyl)-piperazinyl-imidazolo[4,5-cl- rifamycin SV [Verbindung 69] | 128 | 32 | 32 | 0.05 | 32 | 128 | 0.05 | 32 |  |  |  |  |  |  |  |  |
| 4-(4-Isobutyl-perhydrct-1,4-diazepinyl)-imidazolo(4,5-c]-rifamycin SV [Verbindung 77] | 8 | 8 | 8 | 0.01 | 8 | 32 | 0.01 | 8 |  |  |  |  |  |  |  |  |
| 4-(4-Morpholinocarbonylmethylpiperazinyl)-imidazolo-[4,5-c]rifamycin SV [Verbindung 73] | 128 | 128 | 32 | 0.05 | 128 | 128 | 0.05 | 32 |  |  |  |  |  |  |  |  |
| CO[C@H]1/C=C/O[C@@]2(C)Oc3c(C)c(O)c4c(O)c(c5[nH]c(N(C)C6CCN(C)CC6)nc5c4c3C2=O)NC(=O)/C(C)=C\C=C\[C@H](C)[C@H](O)[C@@H](C)[C@@H](O)[C@@H](C)[C@H](OC(C)=O)[C@@H]1C [Verbindung 13] |  |  |  |  |  |  |  |  | 8 (≈ 9.43 µM) | 8 (≈ 9.43 µM) | 16 (≈ 18.9 µM) | 0.05 (≈ 0.059 µM) | 8 (≈ 9.43 µM) | 32 (≈ 37.7 µM) | 0.05 (≈ 0.059 µM) | 16 (≈ 18.9 µM) |
| 4-[4-(2-Ethoxyethyl)-piperazinyl]-imidazolo[4,5-c] rifamycin SV [Verbindung 64] | 16 | 16 | 16 | 0.005 | 16 | 64 | 0.01 | 16 |  |  |  |  |  |  |  |  |
